Results taken from patent US20070270475A1, “4-Methoxy-Pyrrolidine-2-Carboxylic Acid Compounds and Derivatives Thereof as Hepatitis C Virus Inhibitors” (priority 2004, published 2007).

Each molecule was assayed against T1, HCV RNA Polymerase, recombinant full-length NS5B, genotype 1b (Hepatitis C virus genotype 1b, UniProt Q9WMX2) (assay: In vitro HCV RNA-dependent RNA polymerase inhibition assay, genotype 1b full-length enzyme). Conditions: genotype 1b full-length NS5B, 4 nM enzyme.
T1 construct: Recombinant full-length NS5B; made in house; host or cells: baculovirus (insect cells)
T1 sequence (Q9WMX2 2420-3010): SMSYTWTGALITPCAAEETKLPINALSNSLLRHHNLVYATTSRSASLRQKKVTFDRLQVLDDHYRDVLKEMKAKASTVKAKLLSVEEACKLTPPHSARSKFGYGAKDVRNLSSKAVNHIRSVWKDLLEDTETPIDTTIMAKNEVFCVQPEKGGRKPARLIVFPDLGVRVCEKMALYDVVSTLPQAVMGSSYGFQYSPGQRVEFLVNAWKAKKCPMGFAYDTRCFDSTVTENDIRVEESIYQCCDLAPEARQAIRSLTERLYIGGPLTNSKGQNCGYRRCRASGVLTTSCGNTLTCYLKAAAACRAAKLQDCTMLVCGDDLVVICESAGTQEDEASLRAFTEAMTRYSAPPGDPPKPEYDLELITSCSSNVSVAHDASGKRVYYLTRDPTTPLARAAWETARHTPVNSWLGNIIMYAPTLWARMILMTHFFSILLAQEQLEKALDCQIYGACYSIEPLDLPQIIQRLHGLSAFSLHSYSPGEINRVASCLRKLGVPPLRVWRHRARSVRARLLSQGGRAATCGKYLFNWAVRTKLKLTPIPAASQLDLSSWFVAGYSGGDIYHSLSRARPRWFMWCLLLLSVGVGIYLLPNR
Type: biochemical, HCV genotype 1b
Experimental: In Vitro Detection of inhibitors of HCV RNA-Dependent RNA Polymerase Activity
Incorporation of [^33P]-GMP into RNA was followed by absorption of the biotin labelled RNA polymer by streptavidin containing SPA beads. A synthetic template consisting of biotinylated 13mer-oligoG hybridised to polyrC was used as a homopolymer substrate.
b) Genotype 1b Full-Length Enzyme
Reaction Conditions were 0.5 μM [^33P]-GTP (20 Ci/mMol), 1 mM Dithiothreitol, 20 mM MgCl2, 5 mM MnCl2, 20 mM Tris-HCl, pH7.5, 1.6 μg/mL polyC/0.256 μM biotinylated oligoG13, 10% glycerol, 0.01% NP-40, 0.2 u/μL RNasin and 50 mM NaCl.
HCV RNA Polymerase (Recombinant full-length NS5B (Lohmann et al, J. Virol. 71 (11), 1997, 8416. ‘Biochemical properties of hepatitis C virus NS5B RNA-dependent RNA polymerase and identification of amino acid sequence motifs essential for enzymatic activity’) expressed in baculovirus and purified to homogeneity) was added to 4 nM final concentration.
5× concentrated assay buffer mix was prepared using 1M MnCl2 (0.25 mL), glycerol (2.5 mL), 10% NP-40 (0.025 mL) and Water (7.225 mL), Total 10 mL.
2× concentrated enzyme buffer contained 1M-Tris-HCl, pH7.5 (0.4 mL), 5M NaCl (0.2 mL), 1M-MgCl2(0.4 mL), glycerol (1 mL), 10% NP-40 (10 μL), 1M DTT (20 μL) and water (7.97 mL), Total 10 mL.
Substrate Mix was prepared using 5x Concentrated assay Buffer mix (4 μL), [^33P]-GTP (10 μCi/μL, 0.02 μL), 25 μM GTP (0.4 μL), 40 μ/μL RNasin (0.1 μL), 20 μg/mL polyrC/biotinylated-oligorG (1.6 μL), and Water (3.94 μL), Total 10 μL.
Enzyme Mix was prepared by adding 1 mg/ml full-length NS5B polymerase (1.5 μL) to 2.81 mL 2×-concentrated enzyme buffer.
The Assay was set up using compound (1μL), Substrate Mix (10 μL), and Enzyme Mix (added last to start reaction) (10 μL), Total 21 μL.
The reaction was performed in a U-bottomed, white, 96-well plate. The reaction was mixed on a plate-shaker, after addition of the Enzyme, and incubated for 1 h at 22° C. After this time, the reaction was stopped by addition of 40 μL 1.875 mg/ml streptavidin SPA beads in 0.1 M EDTA. The beads were incubated with the reaction mixture for 1 h at 22° C. after which 120 μL 0.1 M EDTA in PBS was added. The plate was sealed, mixed centrifuged and incorporated radioactivity determined by counting in a Trilux (Wallac) or Topcount (Packard) Scintillation Counter.
After subtraction of background levels without enzyme, any reduction in the amount of radioactivity incorporated in the presence of a compound, compared to that in the absence, was taken as a measure of the level of inhibition. Ten concentrations of compounds were tested in three- or fivefold dilutions. From the counts, percentage of inhibition at highest concentration tested or IC50s for the compounds were calculated using GraFit 3, GraFit 4 or GraFit 5 (Erithacus Software Ltd.) software packages or a data evaluation macro for Excel based on XLFit software (IDBS).
With `COC[C@H]1C[C@@](Cc2ccccc2)(C(=O)O)N(C(=O)c2ccc(C(C)(C)C)c(OC)c2)[C@H]1c1nccs1` (racemic) [Compound E, rel-(2R,4S,5R)-2-benzyl-1-(3-methoxy-4-tert-butylbenzoyl)-4-methoxymethyl-5-(1,3-thiazol-2-yl)-pyrrolidine-2-carboxylic acid, reference compound] the IC50 was 200 to 500 nM. `COC[C@H]1C[C@@](CC(C)C)(C(=O)O)N(C(=O)c2ccc(C(C)(C)C)c(OC)c2)[C@H]1c1nccs1` [Compound B, (2S,4S,5R)-2-isobutyl-1-(3-methoxy-4-tert-butylbenzoyl)-4-methoxymethyl-5-(1,3-thiazol-2-yl)pyrrolidine-2-carboxylic acid, reference compound] showed an IC50 of 200 to 500 nM. `COC[C@H]1C[C@@](Cn2cccn2)(C(=O)O)N(C(=O)c2ccc(C(C)(C)C)c(OC)c2)[C@H]1c1nccs1` (single isomer, unassigned) [Example 7] showed an IC50 of less than 200 nM. `COC[C@H]1C[C@@](CC(C)C)(C(=O)O)N(C(=O)c2ccc(C(C)(C)C)c(OC)c2)[C@H]1c1nccs1` (racemic) [Compound A, rel-(2S,4S,5R)-2-isobutyl-1-(3-methoxy-4-tert-butylbenzoyl)-4-methoxymethyl-5-(1,3-thiazol-2-yl)pyrrolidine-2-carboxylic acid, reference compound] was tested, and the IC50 was greater than 500 nM. With `COC[C@H]1C[C@@](Cc2nccs2)(C(=O)O)N(C(=O)c2ccc(C(C)(C)C)c(OC)c2)[C@H]1c1ncc(C)s1` (racemic) [Example 8, rel-(2R,4S,5R)-1-(3-Methoxy-4-tert-butylbenzoyl)-4-(methoxymethyl)-5-(5-methyl-1,3-thiazol-2-yl)-2-(1,3-thiazol-2-ylmethyl)pyrrolidine-2-carboxylic acid] the IC50 was less than 200 nM. In the case of `COC[C@H]1C[C@@](CC(C)C)(C(=O)O)N(C(=O)c2ccc(C(C)(C)C)c(OC)c2)[C@H]1c1ncc(C)s1` (racemic) [Compound C, rel-(2S,4S,5R)-2-isobutyl-1-(3-methoxy-4-tert-butylbenzoyl)-4-methoxymethyl-5-(5-methyl-1,3-thiazol-2-yl)pyrrolidine-2-carboxylic acid, reference compound], the IC50 is reported as greater than 500 nM. With `COC[C@H]1C[C@@](Cc2cscn2)(C(=O)O)N(C(=O)c2ccc(C(C)(C)C)c(OC)c2)[C@H]1c1ncc(C)s1` (single isomer, unassigned; enantiomer a) [Example 2] the IC50 was less than 200 nM. With `COC[C@H]1C[C@@](Cc2cscn2)(C(=O)O)N(C(=O)c2ccc(C(C)(C)C)c(OC)c2)[C@H]1c1nccs1` (racemic) [Example 3, rel-(2R,4S,5R)-1-(3-Methoxy-4-tert-butylbenzoyl)-4-(methoxymethyl)-5-(1,3-thiazol-2-yl)-2-(1,3-thiazol-4-ylmethyl)pyrrolidine-2-carboxylic acid] the IC50 was less than 200 nM. Work on `COC[C@H]1C[C@@](Cn2cccn2)(C(=O)O)N(C(=O)c2ccc(C(C)(C)C)c(OC)c2)[C@H]1c1nccs1` (racemic) [Example 6, rel-(2R,4S,5R)-1-(3-Methoxy-4-tert-butylbenzoyl)-4-(methoxymethyl)-2-(1H-pyrazol-1-ylmethyl)-5-(1,3-thiazol-2-yl)pyrrolidine-2-carboxylic acid] yielded an IC50 of less than 200 nM. In the case of `COC[C@H]1C[C@@](Cc2ccsn2)(C(=O)O)N(C(=O)c2ccc(C(C)(C)C)c(OC)c2)[C@H]1c1ncc(C)s1` (racemic) [Example 9, rel-(2R,4S,5R)-1-(3-Methoxy-4-tert-butylbenzoyl)-4-(methoxymethyl)-5-(5-methyl-1,3-thiazol-2-yl)-2-(1,2-thiazol-3-ylmethyl)pyrrolidine-2-carboxylic acid], the IC50 is reported as less than 200 nM. With `COC[C@H]1C[C@@](Cn2cccn2)(C(=O)O)N(C(=O)c2ccc(C(C)(C)C)c(OC)c2)[C@H]1c1ncc(C)s1` (single isomer, unassigned; enantiomer a) [Example 11] the IC50 was less than 200 nM. `COC[C@H]1C[C@@](Cc2cscn2)(C(=O)O)N(C(=O)c2ccc(C(C)(C)C)c(OC)c2)[C@H]1c1ncc(C)s1` (racemic) [Example 1, rel-(2R,4S,5R)-1-(3-Methoxy-4-tert-butylbenzoyl)-4-(methoxymethyl)-5-(5-methyl-1,3-thiazol-2-yl)-2-(1,3-thiazol-4-ylmethyl)pyrrolidine-2-carboxylic acid] was tested, and the IC50 was less than 200 nM. Molecule `COCC1CC(CC(C)C)(C(=O)O)N(C(=O)c2ccc(C(C)(C)C)c(OC)c2)C1c1ncc(C)s1` (single isomer, unassigned; enantiomer a) [Compound D, reference compound] has an IC50 of 200 to 500 nM. In the case of `COC[C@H]1C[C@@](Cn2cccn2)(C(=O)O)N(C(=O)c2ccc(C(C)(C)C)c(OC)c2)[C@H]1c1ncc(C)s1` (racemic) [Example 10, rel-(2R,4S,5R)-1-(3-Methoxy-4-tert-butylbenzoyl)-4-(methoxymethyl)-5-(5-methyl-1,3-thiazol-2-yl)-2-(1H-pyrazol-1-ylmethyl)pyrrolidine-2-carboxylic acid], the IC50 is reported as less than 200 nM. In the case of `COC[C@H]1C[C@@](Cc2ccsn2)(C(=O)O)N(C(=O)c2ccc(C(C)(C)C)c(OC)c2)[C@H]1c1nccs1` (racemic) [Example 4, rel-(2R,4S,5R)-1-(3-Methoxy-4-tert-butylbenzoyl)-4-(methoxymethyl)-5-(1,3-thiazol-2-yl)-2-(1,2-thiazol-3-ylmethyl)pyrrolidine-2-carboxylic acid], the IC50 is reported as less than 200 nM. Work on `COC[C@H]1C[C@@](Cc2cscn2)(C(=O)O)N(C(=O)c2ccc(C(C)(C)C)c(OC)c2)[C@H]1c1nccs1` (single isomer, unassigned; enantiomer a) [Example 12] yielded an IC50 of less than 200 nM. Molecule `COC[C@H]1C[C@@](Cc2ccsn2)(C(=O)O)N(C(=O)c2ccc(C(C)(C)C)c(OC)c2)[C@H]1c1nccs1` (single isomer, unassigned; enantiomer a) [Example 5] has an IC50 of less than 200 nM.
